The test system of data set [1] is HT-29. Kind of data set: Cellular uptake in human HT-29 spheroids of diameter 300+/-10 um assessed per mg of protein at 0.4 MBq after 4 hrs by gamma counting. To be noted: ht-29, 4 h. The format is ADME, cell-based.
Data set [2] concerns HT-29. As to the kind of experiment: Cellular uptake in human HT-29 spheroids of diameter 600+/-10 um assessed per mg of protein at 0.4 MBq after 4 hrs by gamma counting. The format is ADME, cell-based. To be noted: ht-29, 4 h.
Data set [3] relates to HT-29. To be noted: human, ht-29, 4 h.
Description: Cellular uptake in human HT-29 monolayers assessed per mg of protein at 0.4 MBq after 4 hrs by gamma counting

For `O=[N+]([O-])c1nccn1CC(O)C[18F]` (stereo not drawn) [[18F]FLUOROMISONIDAZOLE], the Drug uptake was found to be 1.17 %ID in the data set with HT-29 [1], 9.86 %ID in the data set on HT-29 [2] and 1.03 %ID with HT-29 [3].

The values are drawn from ChEMBL document CHEMBL2034850, “Radiosynthesis of a ¹⁸F-labeled 2,3-diarylsubstituted indole via McMurry coupling for functional characterization of cyclooxygenase-2 (COX-2) in vitro and in vivo” (Bioorg Med Chem, 2012).
